Where two headings read alike, the source gives them in different places.
Experiments:
MDA-MB-231 cells [1] = assay: Cell proliferation evaluation (label-free image cell counting); assay type: cell-based, human; details: for concentration of maximum suppression of cell proliferation: MDA-MB-231, 48 h
Description: (§1) The human TNBC MDA-MB-231 cell line (ATCC HTB-26) and the non-cancerous breast cell line MCF-12A (ATCC CRL-10782) were purchased from ATCC (Manassas, VA, USA). DMEM-HG cell growth medium supplemented with 10% (v/v) FBS was used to culture breast cancer cells. To establish a cisplatin-resistant cell strain, MDA-MB-231 cells were continuously treated with increasing concentrations of cisplatin (up to 2 µM) during a period of 6 months. When a consistent cell growth rate in the presence of cisplatin was achieved, these cells were named MDA-MB-231/R and stocked to assure the consistency of the phenotype for future use and experiments. All posterior experiments were performed within 10 passages to maintain the resistance while routinely growing the MDA-MB-231/R cell line in a cell culture medium without the addition of cisplatin. MCF-12A cells were cultured in DMEM/F12 medium supplemented with 100 ng/mL cholera toxin, 0.01 mg/mL bovine insulin, 20 ng/mL hEGF, 500 ng/mL hydrocortisone and 5% (v/v) horse serum. Cells were grown in monolayers in a sterile environment at 37 °C with a 5% CO2 humidified atmosphere. Under these conditions, the population doubling time was 25.5 ± 0.9 h and 30.6 ± 1.1 h for MDA-MB-231 and MDA-MB-231/R cells, respectively, and 20.6 ± 3.1 h for MCF-12A cells. The cell cultures were routinely screened for mycoplasma contamination, yielding negative results.
(§2) Cells were seeded in 96-well microplates at the cell density 1.5 × 10^4 cells/cm^2 (final volume 200 µL/well) and left 24 h to attach. Afterwards, the growth medium was replaced with the growth medium containing cisplatin (0.1–200 µM), Pd3Spd2 (0.3–200 µM), Pt3Spd2 (0.3–100 µM) and Pd2Spm (0.3–200 µM).
(§3) Cell proliferation was monitored with the direct image acquisition of cells on microplates at 0, 24, 48 and 72 h post-addition of the tested compounds using a LionheartFX automated microscope (BioTek, Winooski, VT, USA). Label-free kinetic 4× images were acquired and processed using Gen 5 Image Analysis software (BioTek, Winooski, VT, USA). Individual cells per image were identified and counted, and normalized cell growth (%) was calculated using the following formula: Ct=Number of Treated Cellst−Number of Treated Cells0/Number of Untreated Cellst−Number of Untreated Cells0×100 where C(t) is the percent of net cell growth over time, Number of Treated Cells(t) is the count of cells treated with drug at each time point, Number of Treated Cells(0) is the count cells treated with drug at time 0 h, Number of Untreated Cells(t) is the count of untreated (control) cells at each time point and Number of Untreated Cells(0) is the count of untreated (control) cells at time 0 h.
(§4) Data are expressed as the mean ± standard error of the mean (SEM). GraphPad Prism 7 Software (San Diego, CA, USA) was used, and the statistical analysis was performed using the two-tailed Student’s t-test. The half-maximal inhibitory concentration values (IC50) were calculated by interpolation from the nonlinear regression curves obtained from cell proliferation/cytotoxicity data using “log(inhibitor) versus the normalized response–variable slope equation”. A p-value lower than 0.05 was considered statistically significant.

[2] = tested on: MCF-12A cells (non-cancerous breast cells); assay: as above; assay type: cell-based, human; details: for IC50: suppression of cell proliferation, n = 4, read-out: IC50 against MCF-12A cells; for Selectivity Index for MDA-MB-231/R: IC50 MCF-12A divided by IC50 MDA-MB-231/R
Description: as §1, §2, §3, §4

[3] = tested on: MDA-MB-231/R cells (cisplatin-resistant); assay: as above; assay type: cell-based, human; details: for concentration of maximum suppression of cell proliferation: MDA-MB-231/R; for IC50: suppression of cell proliferation, n = 4; for Resistance Index: IC50 MDA-MB-231/R divided by IC50 MDA-MB-231, cell proliferation assay
Description: as §1, §2, §3, §4

leukemic P388 cells = tested on: leukemic P388 cells; parameters: method as in doi:10.1016/j.ccr.2016.02.001; details: cited from earlier work
sarcoma = tested on: sarcoma; parameters: method as in earlier work; details: cited from earlier work
MDA-MB-231 cells [4] = assay: MTT assay (cell viability); assay type: cell-based, human; details: n = 4
Description: (§5) The cells were harvested upon the addition of trypsin/EDTA solution, seeded in 96-well plates (1.5 × 10^4 cells/cm^2) and incubated at 37 °C. After allowing the cells to adhere for 24 h, the growth medium was replaced with the growth medium containing Pd3Spd2 (1–200 µM) or Pt3Spd2 (1–200 µM).
(§6) After each incubation period (24, 48 and 72 h), the cell viability was evaluated by the MTT [33] method. Briefly, a MTT solution (0.5 mg/mL in PBS) was added to each well after carefully removing the medium and allowed to incubate for 3 h at 37 °C; after which, the MTT was aspirated and, in order to dissolve the formazan crystals, 100 µL of DMSO were added. The optical density was measured at 570 nm.
as §4

[5] = tested on: MDA-MB-231/R cells (cisplatin-resistant); assay: MTT assay (cell viability); assay type: cell-based, human; details: for IC50: cell viability, MTT assay, n = 4
Description: as §5, §6, §4

[6] = suppression of cell proliferation, 48 h incubation, n = 4, read-out: MDA-MB-231 IC50
[7] = IC50 MCF-12A divided by IC50 MDA-MB-231, 48 h
[8] = suppression of cell proliferation, 24 h incubation, n = 4, read-out: MDA-MB-231 IC50
[9] = suppression of cell proliferation, 72 h incubation, n = 4, read-out: MDA-MB-231 IC50

NCCCNCCCCNCCCN.[Cl][Pd][Cl].[Cl][Pd][Cl] [Pd2Spm, reference compound]
concentration of maximum suppression of cell proliferation (MDA-MB-231 cells [1]): 30 µM | IC50 (MDA-MB-231 cells [1]; [6]): 7.9 µM | concentrations required to suppress/modify MCF-12A cell proliferation ([2]; MCF-12A healthy breast cells, 48 h): above 40 μM | suppression of MCF-12A cell proliferation ([2]; MCF-12A, for 100 μM, 48 h): up to 60% | IC50 ([2]; 48 h incubation): ~90 µM | concentration of maximum suppression of cell proliferation ([3]; 48 h): 30 µM | IC50 ([3]; 48 h incubation): 11.6 µM

N.N.[Cl][Pt][Cl] [cisplatin, cis-dichlorodiammine platinum(II)]
concentration of maximum suppression of cell proliferation (MDA-MB-231 cells [1]): 30 µM | IC50 (MDA-MB-231 cells [1]; [6]): 1 µM | Selectivity Index for MDA-MB-231 [2, 7]: 1 | IC50 ([2]; 48 h incubation): 1 µM | concentration of maximum suppression of cell proliferation ([3]; 48 h): 200 µM | IC50 ([3]; 48 h incubation): 32.4 µM

O=[N+]([O-])[O-].O=[N+]([O-])[O-].[Pd+2].c1ccc(-c2ccccn2)nc1 [Pd(bpy)(ONO2)2]
activity towards leukemic P388 cells (leukemic P388 cells): inactive | antitumor activity against sarcoma (sarcoma): effective antitumor agent

NCCCCNCCCN.NCCCCNCCCN.[Cl][Pd][Cl].[Cl][Pd][Cl].[Cl][Pd][Cl] [Pd3Spd2]
IC50 (MDA-MB-231 cells [4]; 24 h incubation): 8.99 µM | IC50 (MDA-MB-231 cells [4]; 48 h incubation): 4.65 µM | IC50 (MDA-MB-231 cells [4]; 72 h incubation): 6.12 µM | resistance index (abstract summary) ([5]; MDA-MB-231/R versus MDA-MB-231, over assays and incubation times): lower than 2.3 | IC50 ([5]; 24 h incubation): 9.24 µM | IC50 ([5]; 48 h incubation): 10.6 µM | IC50 ([5]; 72 h incubation): 11.4 µM | concentrations that suppressed cell proliferation (MDA-MB-231 cells [1]; MDA-MB-231, 24-72 h, concentration-dependent): above 1 μM | concentration of maximum suppression of cell proliferation (MDA-MB-231 cells [1]): 30 µM | IC50 (MDA-MB-231 cells [1]; [8]): 8.35 µM | IC50 (MDA-MB-231 cells [1]; [6]): 8.44 µM | IC50 (MDA-MB-231 cells [1]; [9]): 7.92 µM | Selectivity Index for MDA-MB-231 ([2]; IC50 MCF-12A divided by IC50 MDA-MB-231, 24 h): 7.94 | Selectivity Index for MDA-MB-231 [2, 7]: 6.28 | Selectivity Index for MDA-MB-231 ([2]; IC50 MCF-12A divided by IC50 MDA-MB-231, 72 h): 6.28 | Selectivity Index for MDA-MB-231/R ([2]; 48 h): 4.99 | Selectivity Index for MDA-MB-231/R ([2]; 72 h): 4.59 | selectivity index for MDA-MB-231 cells (sensitive TNBC), over incubation times ([2]; MCF-12A versus MDA-MB-231, depending on the time of incubation (24-72 h)): > 6.28 | selectivity index for MDA-MB-231/R cells (resistant TNBC), over incubation times ([2]; MCF-12A versus MDA-MB-231/R, depending on the time of incubation (24-72 h)): > 4.59 | IC50 ([2]; 24 h incubation): 66.3 µM | IC50 ([2]; 48 h incubation): 53 µM | IC50 ([2]; 72 h incubation): 49.7 µM | Resistance Index ([3]; 24 h): 1.6 | Resistance Index ([3]; 48 h): 1.3 | Resistance Index ([3]; 72 h): 1.4 | concentration of maximum suppression of cell proliferation ([3]; 48 h): 30 µM | IC50 ([3]; 24 h incubation): 13.3 µM | IC50 ([3]; 48 h incubation): 10.6 µM | IC50 ([3]; 72 h incubation): 10.8 µM

NCCCCNCCCN.NCCCCNCCCN.[Cl][Pt][Cl].[Cl][Pt][Cl].[Cl][Pt][Cl] [Pt3Spd2]
IC50 (MDA-MB-231 cells [4]; 24 h incubation): > 100 µM | IC50 (MDA-MB-231 cells [4]; 48 h incubation): > 100 µM | IC50 (MDA-MB-231 cells [4]; 72 h incubation): > 100 µM | IC50 ([5]; 24 h incubation): > 100 µM | IC50 ([5]; 48 h incubation): 67.9 µM | IC50 ([5]; 72 h incubation): > 100 µM | reduction of cell proliferation (MDA-MB-231 cells [1]; MDA-MB-231, only with concentrations above 100 μM): up to 25% | IC50 (MDA-MB-231 cells [1]; cell proliferation, depending on the incubation period (24, 48, 72 h), read-out: IC50 in MDA-MB-231 cells, over all incubation periods): > 100 µM | IC50 (MDA-MB-231 cells [1]; [8]): > 100 µM | IC50 (MDA-MB-231 cells [1]; [6]): > 100 µM | IC50 (MDA-MB-231 cells [1]; [9]): > 100 µM | IC50 ([3]; 24 h incubation): > 100 µM | IC50 ([3]; 48 h incubation): > 100 µM | IC50 ([3]; 72 h incubation): > 100 µM
